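Five concentrations, 48 hours, 96-well plates. Here, GI50 denotes the concentration required for 50% inhibition of growth. At the TGI there is no net growth.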
Key:
Assay in all cases: NCI anticancer screen, dose series, 48 h
[1] = test system: NCI-H460 lung
[2] = test system: A549 NSCLC
[3] = test system: COLO 205 colon
[4] = test system: SF-295 CNS
[5] = test system: OVCAR-8 ovarian
[6] = test system: HOP-92 NSCLC
[7] = test system: MALME-3M melanoma
[8] = test system: SNB-75 CNS
[9] = test system: DU-145 prostate
[10] = test system: HT29 colon

Compound	GI50 [1] [µM]	TGI [1] [µM]	GI50 [2] [µM]	TGI [2] [µM]	GI50 [3] [µM]	TGI [3] [µM]	GI50 [4] [µM]	TGI [4] [µM]	GI50 [5] [µM]	TGI [5] [µM]	GI50 [6] [µM]	TGI [6] [µM]	GI50 [7] [µM]	TGI [7] [µM]	GI50 [8] [µM]	TGI [8] [µM]	GI50 [9] [µM]	TGI [9] [µM]	GI50 [10] [µM]	TGI [10] [µM]
N#Cc1cc(S(=O)(=O)Nc2nc3ccccc3o2)c(SCc2ccccc2)cc1Cl	21.5	56.1	22.5	55	30.6	> 100	27.2	65.8	5.1	63.2	17.4	34.2	34.5	69.9	25.5	59.3	21	46.7	29.1	83.6
CC(C)c1ccc(NC(=O)Cc2ccc(Nc3ncnc4cc(-c5cnn(CCN(C)C)c5)ccc34)cc2)cc1	0.19	2.33	1.2	4.15	0.218	1.83	2.47	> 10	1.29	3.54	3.44	> 10	> 10	> 10	0.162	2.03	1.46	2.83	1.4	3.49
CCn1c(-c2nonc2N)nc2c(N3CCCC3)nccc21	8.95	> 25	13.2	> 25	11	> 25	9.27	> 25	9.88	> 25	3.88	22.9	> 25	> 25	10.3	> 25	14	> 25	7.97	> 25
COc1ccc(-c2cc(=O)c3c(O)c(OC)c(OC)c(OC)c3o2)cc1	–	> 100	–	> 100	–	> 100	–	> 100	–	> 100	–	> 82.8	–	> 100	–	> 56.3	–	> 100	–	> 100
CC(SCc1ccccc1)C(=O)O (stereo not given)	–	> 100	–	> 100	–	> 100	–	> 100	–	> 100	–	> 100	–	> 100	–	> 100	–	> 100	–	> 100
NC(Cc1ccccc1)c1nccs1 (stereo not given)	–	–	–	> 100	–	> 100	–	> 100	–	> 100	–	> 100	–	> 100	–	> 100	–	> 100	–	> 100
CC[C@H](C)[C@H](NC(=O)c1cccn1C)C(=O)N(C)[C@H](C[C@@H](OC(C)=O)c1nc(C(=O)N[C@@H](Cc2ccccc2)C[C@H](C)C(=O)OC)cs1)C(C)C	0.123	> 14.4	0.661	> 33.3	0.15	0.576	0.0744	–	0.354	> 33.3	0.13	5.08	11.1	> 33.3	0.0929	> 33.3	0.348	> 33.3	0.205	> 29.5
O=C1NC(c2ccccc2)C2(C(=O)O)CN(C3CC3)c3cc(N4CCNCC4)c(F)cc3C2N1 (stereo not given)	> 100	> 100	> 100	> 100	> 100	> 100	> 100	> 100	> 100	> 100	> 100	> 100	> 100	> 100	> 100	> 100	> 100	> 100	> 100	> 100
C=C1C(=O)O[C@H]2C[C@@H]1C(=O)CC(C)CCCC(C)=CCC[C@@]2(C)O (stereo not given in full)	–	> 25	–	> 25	–	> 25	–	> 25	–	> 25	–	> 25	–	> 25	–	–	–	> 25	–	> 25
CC1=NOC(=O)/C1=C/c1ccc2c(c1)OCO2	–	> 100	–	> 100	–	32.4	–	69.6	–	86.3	–	> 100	–	> 100	–	57.5	–	68.6	–	57.3
CN(C)CCCNc1nc2ccccc2c2[nH]c3ccccc3c12	0.737	3.28	0.402	8.18	0.795	10.1	0.972	3.11	0.917	6.65	1.26	3.83	–	–	1.16	3.78	0.72	4.36	0.163	33
CS(=O)(=O)N(c1cc(-c2ccc3ncnc(Nc4ccc(F)c(Cl)c4)c3c2)cnc1Cl)S(C)(=O)=O	1.76	13.5	1.98	11.2	1.32	5.93	1.25	4.92	2.17	15.5	0.191	1.73	0.267	2.12	0.0739	0.698	1.18	24.9	1.07	13.9
Cc1cc(O)c(-c2ccc([C@@H](C)CN(C)C)cc2)c2c1[nH]c(=O)c1sccc12	0.335	> 49.1	0.647	14.6	2.18	5.2	0.73	6.07	0.983	34.9	0.848	5.35	1.53	4.59	0.206	3.02	0.528	53.3	2.76	7.81
O=C(O)c1ccc(SSc2ccc(C(=O)O)cn2)nc1	–	> 100	–	> 100	–	> 100	–	> 100	–	> 100	–	> 100	–	> 100	–	> 100	–	> 100	–	> 100
CN1CCN(CCCOc2cc(O)c3c(=O)cc(-c4ccccc4)oc3c2)CC1	16.7	34.5	28.8	91.1	15.5	31.6	21.1	44.5	37.1	> 100	14.5	42.9	20.8	42.6	–	–	25.3	73.7	14.5	30.4
C[C@@H]1CC[C@@]2(NC1)O[C@H]1C[C@H]3[C@@H]4CC[C@H]5C[C@@H](O)CC[C@]5(C)[C@H]4CC[C@]3(C)[C@H]1[C@@H]2C	–	> 100	–	> 100	–	> 100	–	> 100	–	54.7	–	> 100	–	> 100	–	> 100	–	> 100	–	> 100
C=C1CCC2C3(C)COC(c4ccccc4Cl)OC3CCC2(C)C1/C=C/C1=CCOC1=O (stereo not given)	5.96	> 100	4.97	> 100	17.9	> 100	3.48	> 100	13.8	> 100	1.6	> 100	17.2	> 100	> 100	> 100	> 100	> 100	5.43	> 100
Nc1ccc(/C=C/c2ccc3cccnc3c2)cc1	–	> 100	–	> 100	–	> 100	–	> 100	–	> 100	–	> 100	–	> 100	–	> 100	–	> 100	–	> 100
COc1cc2nccc(Oc3ccc(NC(=O)c4cn(C(C)C)c(=O)n(-c5ccc(F)cc5)c4=O)cc3F)c2cc1OC	4.98	> 100	> 26	> 100	> 100	> 100	0.435	> 100	> 48.4	> 100	0.347	> 100	2.39	11.8	1.03	> 21.9	> 100	> 100	6.25	> 100
CNC(=O)c1cncc(/C=C/c2ccccc2Cl)c1	> 25	> 25	> 25	> 25	> 25	> 25	> 25	> 25	> 25	> 25	12.6	> 25	> 25	> 25	> 19.7	> 25	> 25	> 25	> 25	> 25
CCN(Cc1c(F)cccc1Cl)c1ccc(CO)c(Cl)c1	< 0.0249	11.2	0.573	16.6	0.694	6.13	0.178	15.7	7.65	23.9	0.116	0.933	14.1	28.6	11.1	25.5	11.8	24.9	0.668	16
COC(=O)N[C@H]1CCc2c(Cl)c(OC)c(OC)c(OC)c2-c2ccc(SC)c(=O)cc21	< 0.01	1.05	< 0.01	> 100	< 0.01	0.0303	–	–	< 0.01	> 100	0.0199	18.6	< 0.01	30.5	< 0.01	> 81.2	< 0.01	> 100	< 0.01	> 94.8
CCOC(=O)CN1C(=O)c2cc([N+](=O)[O-])cc3cc([N+](=O)[O-])cc(c23)C1=O	–	> 100	–	> 100	–	> 100	–	> 100	–	> 100	–	> 100	–	> 100	–	> 100	–	> 100	–	> 100
CCOC(=O)/C=C/c1cccc(F)c1	–	> 100	–	> 100	–	> 100	–	–	–	> 100	–	> 100	–	> 100	–	> 100	–	> 100	–	> 100
CCn1c2ccccc2c2cc(C(=O)c3ccc(C)c4ccccc34)ccc21	0.356	> 100	0.421	> 100	0.249	0.728	0.273	0.936	0.493	> 100	0.28	6.87	0.5	> 100	–	–	0.435	> 100	0.263	0.729
COc1cc2c3c(n(CCCNCCCN)c(=O)c2cc1OC)-c1cc2c(cc1C3=O)OCO2	4.07	18	6.11	29.6	–	–	3.69	16.7	1.27	13	1.36	11.2	2.21	8.66	4.48	36.7	3.08	13.4	1.7	13.6
CN(N)c1nc(N)c(C#N)c(C#N)c1C#N	–	–	–	> 10	–	> 10	–	> 10	–	> 10	–	> 10	–	> 10	–	> 10	–	> 10	–	> 10
N#Cc1cccc(C2C3=C(COC3=O)N(CCO)c3cc4c(cc32)OCO4)c1 (stereo not given)	1.83	> 50	6.17	> 50	1.58	> 50	1.17	> 50	2.88	> 50	2.66	> 50	–	–	0.745	2.76	3	> 50	1.49	> 50
COc1c(N2CCN(CN3C(=O)C(=Nc4ccc(S(=O)(=O)Nc5ncccn5)cc4)c4cc(Cl)ccc43)C(C)C2)c(F)cc2c(=O)c(C(=O)O)cn(C3CC3)c12 (stereo not given)	10.9	46	18.5	> 50	18.4	> 50	24.5	> 50	13.9	> 50	19.2	> 50	–	–	19.1	> 50	16.3	> 50	7.76	> 50
O=c1/c(=N\Nc2ccccc2)c2cccc3ccc4cccc1c4c32	–	–	–	> 100	–	> 100	–	> 100	–	> 100	–	> 100	–	> 100	–	> 100	–	> 100	–	> 100

From PubChem BioAssay (NCI)
